Source: patent publication US20230293526A1, “METHOD FOR TREATING CANCER WITH A REVERSE TRANSCRIPTASE INHIBITOR” (PrimeFour Therapeutics, Inc., priority 2020, published 2023)
pIC50: −log10 of the molar value.

How the values were obtained:
[1] = tested on: human LINE-1; assay: Human LINE-1 (L1) retrotransposition dual-luciferase reporter assay in HeLa cells; type: cell-based; details: Homo sapiens, HeLa, 72 h, read-out: Human LINE-1 IC50 (Human L1 activity inhibition)
Method in brief: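 Compound dilution series (final DMSO 0.2%) added right after transfecting HeLa cells with the pYX017 L1 dual-luciferase reporter; 72 h culture at 37 °C, 5% CO2, triplicates. IC50 fitted by non-linear logistic regression to firefly-to-Renilla luminescence ratio (×10,000).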

[2] = tested on: cancer cell lines; assay: Cancer cell proliferation activity of representative nucleosides, CellTiterGlo 72 h (Example 7, Tables 8 and 9); type: cell-based; details: 72 h
Method in brief: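 Percent viability was set against 0.1% DMSO (100%) and 10 μM staurosporine (0%), with signal from CellTiterGlo luminescence. Dose-response treatment began one day after seeding and lasted 72 h at 37° C under 5% or 10% CO2, with 0.1% final DMSO.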

Measured: pIC50

C#C[C@]1(CO)O[C@@H](n2cc(F)c(=O)[nH]c2=O)C[C@@H]1O [compound 15]
5.85: [2]; Homo sapiens, A-431, 72 h, A431, skin
7.22: [2]; Homo sapiens, MINO, hematological
6.08: [1]
< 4.30: [2]; CLS439, bladder | [2]; HS729, muscle | [2]; J82, bladder | [2]; JAR, placenta | [2]; MT3, breast | [2]; PC3, prostate | [2]; RD, muscle | [2]; T24, bladder | [2]; Homo sapiens, 786-0, 72 h, 786O, kidney | [2]; Homo sapiens, A204, 72 h, A204, muscle | [2]; Homo sapiens, A549, 72 h, A549, lung | [2]; Homo sapiens, A673, 72 h, A673, bone | [2]; Homo sapiens, A2780, 72 h, A2780, ovary | [2]; Homo sapiens, A-375, 72 h, A375, skin | [2]; Homo sapiens, BT-20, 72 h, BT20, breast | [2]; Homo sapiens, CAKI-1, 72 h, CAKI1, kidney | [2]; Homo sapiens, COLO-678, 72 h, COLO678, colon | [2]; Homo sapiens, Ca-Ski, CASKI, endometrial | [2]; Homo sapiens, Caco-2, 72 h, CACO2, colon | [2]; Homo sapiens, Calu-6, 72 h, CALU6, lung | [2]; Homo sapiens, DLD-1, 72 h, DLD1, colon | [2]; Homo sapiens, DU-145, 72 h, DU145, prostate | [2]; Homo sapiens, EFO-21, 72 h, EFO21, ovary | [2]; Homo sapiens, EJ-28, 72 h, EJ28, bladder | [2]; Homo sapiens, HCT-15, 72 h, HCT15, colon | [2]; Homo sapiens, HCT-116, 72 h, HCT116, colon | [2]; Homo sapiens, HEK293, 72 h, HEK293, kidney | [2]; Homo sapiens, HL-60, 72 h, HL-60, hematological | [2]; Homo sapiens, HT-29, 72 h, HT29, colon | [2]; Homo sapiens, HT-1080, 72 h, HT1080, connective tissue | [2]; Homo sapiens, HeLa, endometrial | [2]; Homo sapiens, HepG2, 72 h, HEPG2, liver | [2]; Homo sapiens, Hs-578T, HS578T, breast | [2]; Homo sapiens, IGROV-1, 72 h, IGROV1, ovary | [2]; Homo sapiens, IMR-90, 72 h, IMR90, lung | [2]; Homo sapiens, JEG-3, 72 h, JEG3, placenta | [2]; Homo sapiens, JIMT-1, 72 h, JIMT1, breast | [2]; Homo sapiens, K562, 72 h, K-562, hematological | [2]; Homo sapiens, Kasumi 1, 72 h, KASUMI-1, hematological | [2]; Homo sapiens, L-363, 72 h, L-363, hematological | [2]; Homo sapiens, MCF7, 72 h, MCF7, breast | [2]; Homo sapiens, MDA-MB-231, 72 h, MDAMB231, breast | [2]; Homo sapiens, MDA-MB-435, 72 h, MDAMB435, skin | [2]; Homo sapiens, MDA-MB-436, 72 h, MDAMB436, breast | [2]; Homo sapiens, MDA-MB-468, 72 h, MDAMB468, breast | [2]; Homo sapiens, MG-63, 72 h, MG63, bone | [2]; Homo sapiens, MHH-ES-1, 72 h, MHHES1, bone | [2]; Homo sapiens, MIA PaCa-2, 72 h, MIAPACA2, pancreas | [2]; Homo sapiens, NCI-H23, 72 h, NCI-H23, lung | [2]; Homo sapiens, NCI-H82, 72 h, NCIH82, lung | [2]; Homo sapiens, NCI-H292, 72 h, NCIH292, lung | [2]; Homo sapiens, NCI-H460, 72 h, NCIH460, ung | [2]; Homo sapiens, OVCAR-3, 72 h, OVCAR3, ovary | [2]; Homo sapiens, OVCAR-4, 72 h, OVCAR4, ovary | [2]; Homo sapiens, PANC-1, 72 h, PANC1, pancreas | [2]; Homo sapiens, PLC-PRF-5, 72 h, PLCPRF5, liver | [2]; Homo sapiens, Panc1005, 72 h, PANC1005, pancreas | [2]; Homo sapiens, SAOS-2, 72 h, SAOS2, bone | [2]; Homo sapiens, SF-268, 72 h, SF268, brain | [2]; Homo sapiens, SF-295, 72 h, SF295, brain | [2]; Homo sapiens, SK-HEP1, 72 h, SKHEP1, liver | [2]; Homo sapiens, SK-LMS-1, 72 h, SKLMS1, uterus | [2]; Homo sapiens, SK-MEL-5, 72 h, SKMEL5, skin | [2]; Homo sapiens, SK-MEL-28, 72 h, SKMEL28, skin | [2]; Homo sapiens, SK-N-AS, SKNAS, brain | [2]; Homo sapiens, SK-N-SH, SKNSH, brain | [2]; Homo sapiens, SK-OV-3, 72 h, SKOV3, ovary | [2]; Homo sapiens, SNB-75, 72 h, SNB75, brain | [2]; Homo sapiens, SW-620, 72 h, SW620, colon | [2]; Homo sapiens, TE-671, 72 h, TE671, muscle | [2]; Homo sapiens, THP-1, 72 h, THP-1, hematological | [2]; Homo sapiens, U2OS, bone | [2]; Homo sapiens, U-87 MG, U87MG, brain | [2]; Homo sapiens, UMUC3, 72 h, UMUC3, bladder | [2]; Homo sapiens, UO-31, 72 h, UO31, kidney | [2]; PBMC, hematological | [2]; RD-ES, RDES, bone
6.17: [2]; NCI-H358M, NCIH358M, lung
6.43: [2]; 72 h, 5637, bladder | [2]; Homo sapiens, SK-BR-3, 72 h, SKBR3, breast
5.41: [2]; Homo sapiens, SU-DHL10, 72 h, SU-DHL-10, hematological
6.06: [2]; Homo sapiens, COLO 205, 72 h, COLO205, colon | [2]; Homo sapiens, WSU-NHL, hematological
6.31: [2]; Homo sapiens, ASPC1, 72 h, ASPC1, pancreas
5.76: [2]; Homo sapiens, MV4-11, 72 h, MV4-11, hematological
6.23: [2]; Homo sapiens, BXPC-3, 72 h, BXPC3, pancreas
5.89: [2]; Homo sapiens, SU-DHL-6, 72 h, SU-DHL-6, hematological
6.46: [2]; Homo sapiens, Granta-519, 72 h, GRANTA-519, hematological
5.69: [2]; Homo sapiens, LoVo, colon
6.03: [2]; Homo sapiens, ACHN, kidney
5.93: [2]; Homo sapiens, Ramos, hematological
5.51: [2]; Homo sapiens, C-33-A, C33A, endometrial
5.43: [2]; Homo sapiens, 22Rv1, 72 h, 22RV1, prostate
